According to ChEMBL document CHEMBL5303711, “ECBD screening data for assay EOS300108” (2023):
Active and inactive are the calls of the source. How the calls were made is not given here.

Assay: Cytotoxicity activity against human HepG2 cells assessed by CellTiter-Glo luminescent cell viability assay.
Format: toxicity, cell-based
Parameters: assay stage confirmatory assay, source tissue liver
Conditions: HepG2 cells, read-out: IC50 relative
With `COc1ccc(-c2noc(N3CCC(C(=O)N4CCN(c5ccccc5OC)CC4)CC3)n2)cc1` the CC50 was 8 µM (active).
In the case of `COc1ccc(CNC(=O)C2CCN(S(=O)(=O)c3ccc4c(c3)CC(C)N4C(C)=O)CC2)cc1` (stereo not drawn), the CC50 is reported as 29.7 µM (inactive).
In the case of `CCN1CCN(CCCNC(=O)c2cc3c(=O)n(C)c4ccccc4c3s2)CC1`, the CC50 is reported as 4.1 µM (active).
In the case of `CC(=O)N1CCCc2cc(S(=O)(=O)N3CCCC(C(=O)N4CCN(c5ccccc5)CC4)C3)ccc21` (stereo not drawn), the CC50 is reported as 12.7 µM (inactive).
For `Cc1c(Cl)sn(-c2ccc(Cl)cc2)c1=O`, the CC50 was 4.4 µM (active).
With `CCOc1ccc(S(=O)(=O)Nc2ccc3c(c2)N(C(C)=O)CCC3)cc1` the CC50 was 6.4 µM (active).
For `COc1ccc(-c2noc(N3CCC(C(=O)NCCCN4CCC(C)CC4)CC3)n2)cc1`, the CC50 was 19.2 µM (inactive).
With `CCc1ccc(-c2cc3c(=O)n(CC(=O)NCCCN4CCN(CC)CC4)nc(C)n3n2)cc1` the CC50 was 25.5 µM (inactive).
In the case of `Cc1cc(Br)cc(C)c1OCCCCN(C)C`, the CC50 is reported as 9.8 µM (active).
For `CCN(CC)CCNC(=O)C1CCN(c2nn3cc(-c4ccc(F)cc4)nc3s2)CC1`, the CC50 was 2 µM (active).
For `Cc1n[nH]c(C)c1S(=O)(=O)N1CCCC(C(=O)Nc2ccc(Br)cc2)C1` (stereo not drawn), the CC50 was 26.3 µM (inactive).
In the case of `COc1ccc(Nc2nc(NCCCO)c3ccccc3n2)cc1`, the CC50 is reported as 8.2 µM (active).
For `Cc1cccc(NC(=O)C2CCN(S(=O)(=O)c3cn(C(C)C)cn3)CC2)c1`, the CC50 was 8.8 µM (inactive).
For `COc1ccc(-c2cc3c4nn(CC(=O)Nc5ccccc5)c(=O)n4ccn3n2)cc1`, the CC50 was 50 µM (inactive).
For `COc1ccc(-c2cc3c4nn(CC(=O)Nc5cccc(OC)c5)c(=O)n4ccn3n2)cc1`, the CC50 was 50 µM (inactive).
In the case of `COc1cccc(N2CCN(C(=O)C3CCN(c4nc5cccnc5n(C)c4=O)CC3)CC2)c1`, the CC50 is reported as 4.4 µM (active).
With `O=S1(=O)C[C@H](NC2CCCC2)[C@@H](S(=O)(=O)c2cccs2)C1` the CC50 was 16.1 µM (active).
In the case of `Cc1cc(C)cc(NC(=O)CC2CCCN(c3cn[nH]c(=O)c3)C2)c1` (stereo not drawn), the CC50 is reported as 2.4 µM (active).
In the case of `CC(=O)Nc1ccc(Nc2nc(C)cc(N3CCCC3)n2)cc1`, the CC50 is reported as 10.2 µM (active).
For `O=C(c1ccc(F)cc1)N1CCN(Cc2noc(-c3ccc(F)cc3)n2)CC1`, the CC50 was 5.8 µM (active).
With `COc1ccc(C(=O)N2CCN(Cc3noc(-c4ccc(F)cc4)n3)CC2)cc1` the CC50 was 4.5 µM (active).
In the case of `CC(=O)N1c2ccc(S(=O)(=O)N3CCOCC3)cc2CC1C(=O)NCCN1CCCCCC1` (stereo not drawn), the CC50 is reported as 50 µM (inactive).
For `CCn1c(=O)c(C(=O)Nc2cccc(OC)c2)c(O)c2ccccc21`, the CC50 was 2.4 µM (inactive).
In the case of `CCN1C(=O)COc2ccc(NC(=O)c3cc(-c4ccc5c(c4)OCCO5)on3)cc21`, the CC50 is reported as 50 µM (inactive).
With `CCOc1ccc(C(=O)N2CCN(Cc3noc(-c4ccc(F)cc4)n3)CC2)cc1` the CC50 was 4.8 µM (active).
In the case of `COc1ccc(-c2cn3nc(N4CCCC(C(=O)NCCN5CCCC5)C4)sc3n2)cc1` (stereo not drawn), the CC50 is reported as 5.1 µM (active).
With `Cc1ccc(-c2noc(-c3cccc(OCC(=O)N4CCN(C)CC4)c3)n2)cc1` the CC50 was 6.3 µM (active).
In the case of `COc1ccc(OCC(=O)N2CCN(S(=O)(=O)c3ccc4c(c3)NC(=O)C(C)O4)CC2)cc1` (stereo not drawn), the CC50 is reported as 5.8 µM (active).
For `O=S1(=O)C[C@H](NC2CCCCC2)[C@@H](S(=O)(=O)c2ccc(Cl)cc2)C1`, the CC50 was 17 µM (active).
With `O=C(NCCN1CCCC1)C1CCN(c2nn3cc(-c4ccc(F)cc4)nc3s2)CC1` the CC50 was 2.7 µM (active).
With `CCN(CC)CCCNC(=O)C1CCN(c2nc3ccccc3n(Cc3ccccc3)c2=O)CC1` the CC50 was 6.4 µM (active).
In the case of `Cc1cccc(Cl)c1OCCN(C)CC1(C)COC1`, the CC50 is reported as 50 µM (inactive).
In the case of `Cc1cccc(NC(=O)C2CCN(S(=O)(=O)c3ccc4c(c3)CC(C)N4C(=O)C3CC3)CC2)n1` (stereo not drawn), the CC50 is reported as 1.7 µM (active).
In the case of `CCOc1ccccc1NC(=O)COc1cccc2c(=O)n(C)ccc12`, the CC50 is reported as 1.4 µM (inactive).
With `Cc1ccc(-c2cc3c(=O)n(CC#N)ccn3n2)cc1` the CC50 was 0.3 µM (active).
In the case of `CN1CCCC(CNc2ccc3cc(Cl)ccc3n2)C1` (stereo not drawn), the CC50 is reported as 7.9 µM (active).
For `O=C(Nc1nccs1)C1=C(c2ccccc2)S(=O)(=O)CCO1`, the CC50 was 7.7 µM (active).
With `CCOc1ccc(-n2ccnc(NCc3ccc(OC)c(OC)c3)c2=O)cc1` the CC50 was 5.1 µM (active).
With `Cc1ccc(-c2cn3nc(N4CCC(C(=O)NCCCN5CCOCC5)CC4)sc3n2)cc1` the CC50 was 5.1 µM (active).
For `CCCCC(=O)Nc1ccc(Nc2nc(C)cc(N3CCOCC3)n2)cc1`, the CC50 was 10.1 µM (active).
For `CC(=O)N1c2ccc(S(=O)(=O)N3CCC(C(=O)NCc4cccs4)CC3)cc2CC1C` (stereo not drawn), the CC50 was 33.9 µM (inactive).
With `Cc1ccc(-c2cnn3c(N4CCN(CCO)CC4)cc(C)nc23)cc1` the CC50 was 8.9 µM (active).
In the case of `CCc1onc(C)c1C1CCCN1Cc1ccc(OC)c(O)c1` (stereo not drawn), the CC50 is reported as 6.1 µM (active).
With `Cc1cc2c(cc1S(=O)(=O)Nc1cccc(F)c1)OCC(=O)N2` the CC50 was 28.3 µM (inactive).
In the case of `CC(=O)N1CCCSc2ccc(S(=O)(=O)N3CCN(c4ccc(F)cc4)CC3)cc21`, the CC50 is reported as 7.5 µM (active).
For `CCCN1C(=O)COc2ccc(-c3csc(NC(=O)CC(C)C)n3)cc21`, the CC50 was 18 µM (inactive).
For `COc1cc(-c2cc(C)no2)ccc1S(=O)(=O)Nc1cc(OC)c(OC)c(OC)c1`, the CC50 was 4.5 µM (active).
For `CCCCOc1cccc(C(=O)Nc2nc3c(s2)CN(C)CC3)c1`, the CC50 was 7.9 µM (active).
With `CCN1CCN(C(=O)C2CCCN(c3nn4cc(-c5ccc(OC)cc5)nc4s3)C2)CC1` (stereo not drawn) the CC50 was 12.8 µM (active).
In the case of `CC1Oc2ccc(S(=O)(=O)N3CCN(C(=O)c4ccc(Br)cc4)CC3)cc2NC1=O` (stereo not drawn), the CC50 is reported as 4 µM (active).
With `CCCN1CCN(CCCNC(=O)C2CCN(c3nc(-c4ccc(OC)cc4)no3)CC2)CC1` the CC50 was 13 µM (active).
In the case of `CCN(CC)CCNC(=O)C1CCN(c2nn3cc(-c4ccc(OC)cc4)nc3s2)CC1`, the CC50 is reported as 2.7 µM (active).
In the case of `CN(C)CCNc1oc(-c2ccc(S(=O)(=O)N3CCCCCC3)cc2)nc1C#N`, the CC50 is reported as 18 µM (inactive).
With `CC(NC(=O)N(C)CC1CCOCC1)c1ccccc1C(F)(F)F` (stereo not drawn) the CC50 was 50 µM (inactive).
For `CC1Oc2ccc(S(=O)(=O)N3CCN(C(=O)c4ccc(Cl)cc4)CC3)cc2NC1=O` (stereo not drawn), the CC50 was 6.6 µM (active).
For `O=C(NCCCN1CCOCC1)C1CCN(c2nn3cc(-c4ccc(F)cc4)nc3s2)CC1`, the CC50 was 5.8 µM (active).
In the case of `CCCC(=O)Nc1ccc(Nc2nc(C)cc(N(CC)CC)n2)cc1`, the CC50 is reported as 4.2 µM (active).
In the case of `CCCCN[C@H]1CS(=O)(=O)C[C@@H]1S(=O)(=O)c1ccc(Cl)cc1`, the CC50 is reported as 9.3 µM (active).
With `COCC(=O)Nc1ccc(Nc2nc(C)cc(N3CCCC3)n2)cc1` the CC50 was 3.6 µM (active).
With `COc1cccc(NC(=O)Nc2nc3ccc(S(C)(=O)=O)cc3s2)c1` the CC50 was 18.1 µM (inactive).
For `CCS(=O)(=O)c1ncc(Cl)c(C(=O)Nc2ccc(OC)cc2)n1`, the CC50 was 2.6 µM (active).
With `CCNc1cc(C)nc(Nc2ccc(NC(=O)CC(C)C)cc2)n1` the CC50 was 11 µM (active).
In the case of `CCc1ccc(-c2cc3c(=O)n(CC(=O)NCCN(CC)CC)ncn3n2)cc1`, the CC50 is reported as 6.2 µM (active).
With `O=C(CN1C(=O)COc2ccc(S(=O)(=O)N3CCCC3)cc21)N1CCN(Cc2ccccc2)CC1` the CC50 was 50 µM (inactive).
With `Cc1cccnc1C(NC(=O)CCOc1ccccc1)C1CC1` (stereo not drawn) the CC50 was 36.5 µM (inactive).
For `Cc1cc(N(C)C)nc(N2CCN(C(=O)c3ccc(C(C)(C)C)cc3)CC2)n1`, the CC50 was 5.1 µM (active).
In the case of `CCc1ccc(-c2cc3c(=O)n(CC(=O)NCCCN4CCCC4)nc(C)n3n2)cc1`, the CC50 is reported as 11.4 µM (active).
For `O=S1(=O)C[C@H](NC2CCCC2)[C@@H](S(=O)(=O)c2ccc(Cl)cc2)C1`, the CC50 was 12.1 µM (active).
In the case of `O=C(CN1C(=O)COc2ccc(S(=O)(=O)N3CCCCCC3)cc21)NCc1ccccc1`, the CC50 is reported as 50 µM (inactive).
In the case of `CCN1CCN(CCCNC(=O)c2cccc(NC(=O)c3nnc(COc4ccccc4)s3)c2)CC1`, the CC50 is reported as 6.9 µM (active).
For `Cc1ccc(S(=O)(=O)NCCCNC(=O)c2c3c(nn2C)CCCC3)cc1`, the CC50 was 4.6 µM (active).
With `CCN(CC)CCCNC(=O)C1CCN(c2nn3cc(-c4ccc(OC)cc4)nc3s2)CC1` the CC50 was 3 µM (active).
In the case of `COc1ccc2c(c1)C=C(C(=O)NCc1ccc(OC)c(OC)c1)CO2`, the CC50 is reported as 6.3 µM (active).
In the case of `CC(=O)N1c2ccc(S(=O)(=O)N3CCC(C(=O)N4CC=C(c5ccccc5)CC4)CC3)cc2CC1C` (stereo not drawn), the CC50 is reported as 6.8 µM (active).
With `O=C(Nc1ccncc1)c1cccn(Cc2cccc(F)c2)c1=O` the CC50 was 6.1 µM (active).
For `CCCc1cc(C(=O)NCC2CN(C3CCN(C4CCC4)CC3)C(=O)CO2)n(C)n1` (stereo not drawn), the CC50 was 50 µM (inactive).
In the case of `CN(CC(=O)NCCN1CCC(Cc2ccccc2)CC1)S(=O)(=O)c1cccc2nsnc12`, the CC50 is reported as 9.1 µM (active).
In the case of `O=C(NCCN1CCOCC1)C1CCN(c2nn3cc(-c4ccc(F)cc4)nc3s2)CC1`, the CC50 is reported as 10.5 µM (active).
For `CC(=O)N1CCSc2ccc(S(=O)(=O)N3CCN(Cc4ccc5c(c4)OCO5)CC3)cc21`, the CC50 was 6.4 µM (active).
With `O=C(c1csc(S(=O)(=O)N2CCC(C(=O)N3CCc4ccccc43)CC2)c1)N1CCCCCC1` the CC50 was 10.6 µM (inactive).
For `COc1ccc(-c2cn3nc(N4CCC(C(=O)NCCCN5CCN(C)CC5)CC4)sc3n2)cc1`, the CC50 was 4.1 µM (active).
With `CC1(C)Cc2c(sc(NC(=O)NCc3cccnc3)c2C(N)=O)CO1` the CC50 was 12.4 µM (inactive).
With `CCC(=O)Nc1ccc(Nc2nc(C)cc(N(CC)CC)n2)cc1` the CC50 was 4.5 µM (active).
In the case of `COCCCN[C@H]1CS(=O)(=O)C[C@@H]1S(=O)(=O)c1ccc(Cl)cc1`, the CC50 is reported as 16.7 µM (active).
With `Cc1ccc(Nc2nc(N3CCN(CCO)CC3)nc3c2cnn3C)cc1Cl` the CC50 was 4.8 µM (active).
In the case of `CN(C)CCOc1ccc2ccccc2c1Br`, the CC50 is reported as 12 µM (active).
With `Cc1nn2c(ncc3c(=O)n(CCN(C)C)ccc32)c1-c1ccc(Cl)cc1` the CC50 was 4 µM (active).
In the case of `COc1ccc(-c2cc(C(=O)N3CCCCC3C)n[nH]2)cc1S(=O)(=O)N1CCCCC1` (stereo not drawn), the CC50 is reported as 20.2 µM (inactive).
With `CCc1nc(-c2cc(S(=O)(=O)N3CCCC(C(=O)N4CCC(C)CC4)C3)c(C)s2)no1` (stereo not drawn) the CC50 was 7.9 µM (active).
In the case of `CC(C)OCCCN[C@H]1CS(=O)(=O)C[C@@H]1S(=O)(=O)c1ccc(Cl)cc1`, the CC50 is reported as 16 µM (active).
For `CCOc1ccccc1NC(=O)c1cnc2sc(N3CCOCC3)nn2c1=O`, the CC50 was 15.6 µM (inactive).
With `CCCC(=O)Nc1ccc(Nc2nc(C)cc(N3CCCC3)n2)cc1` the CC50 was 5.7 µM (active).
For `COc1cccc(Nc2nc(N3CCN(C)CC3)nc3c2cnn3C)c1`, the CC50 was 14 µM (inactive).
